The source of these data is PMC8641662 (Frontiers in Plant Science, 2021).

The subject of one series is red clover HDT (HDT1). The series is described as follows: In vitro hydroxycinnamoyl-CoA transferase activity assay with crude E. coli extracts containing recombinant HDT, products by HPLC with PDA and MS. The conditions noted are these: p-coumaroyl-, caffeoyl- or feruloyl-CoA donor; HPLC with PDA and MS detection. Format: biochemical, red clover (Trifolium pratense L.). As for the experimental part: General in vitro reactions for hydroxycinnamoyl-CoA transferase activity contained 100mM sodium phosphate buffer (pH 7.5), 25 to 50mM ascorbate, 1 to 2mM p-coumaroyl-, caffeoyl-, or feruloyl-CoA donor substrate, 1 to 6mM acceptor substrate (L-amino acids, shikimic acid, or malic acid), and red clover leaf or E. coli extract. When red clover extract was the enzyme source, reaction head space was exchanged for nitrogen to prevent oxidation of caffeoyl and L-DOPA moieties by endogenous PPO. Reactions were incubated at 30°C for up to 1h prior to being stopped by the addition of one-fifth volume of 10% formic acid. Precipitated protein was removed by centrifugation (17,000×g for 5min at room temperature) and the supernatant analyzed for reaction products by HPLC as described above.
Crude E. coli extracts containing the recombinant proteins were incubated with hydroxycinnamoyl-CoAs and acceptors, and the reactions were analyzed by HPLC with PDA and MS detection. […] In the case of caffeoyl-L-Tyr and caffeoyl-L-DOPA, where authentic compound was available for purchase, the in vitro-formed products were indistinguishable from the purchased standards in terms of retention time, UV absorption spectrum, and (m/z). For caffeoyl-L-Tyr, we also produced sufficient compound via an HDT1-mediated reaction to carry out ^1H and ^13C NMR to further confirm product identity (Supplementary Figure S2). Chemical shifts were consistent with those previously published for this compound ([Stark and Hofmann, 2005]). […] We only tested L-amino acids with HDT1, since this is what is present in clovamide and what is most abundantly present in nature. […] In this case, ability of the D-amino acid substrates to serve as acceptor substrates could be due to their structural (including stereochemistry) similarity to the D-phenyllactic acid acceptor also used by this enzyme.

A further series deals with red clover HDT1 (Trifolium pratense, UniProt A0A384ZRD3). Nature of the series: Determination of kinetic parameters of HDT (initial rates by release of free CoA, DTNB, purified histidine-tagged HDT1). The conditions noted are these: for Km / kcat: variable acceptor substrate; for Km: pH 8.0, 25°C. The method, then: Kinetic parameters for HDT were determined by measuring initial reaction rates by release of free CoA in real time using DTNB [5,5′-dithio-bis-(2-nitrobenzoic acid)] and spectroscopy as detailed elsewhere ([Sullivan and Bonawitz, 2018]). Measurements were made in a temperature-controlled spectrophotometer at 25°C. Reactions were carried out in 100mM sodium phosphate, 1mM EDTA, pH 8.0. Acceptor substrates were prepared in 1N HCl as 66.7×stock solutions, so an equal amount of 1N NaOH was added to reactions to neutralize the HCl (15mM final). Substrate and enzyme amounts used are detailed in Table 2.
All kinetic data analyses were carried out using GraphPad Prism version 7 or higher for Mac OS (GraphPad Software, La Jolla, CA, United States). Each analysis (i.e., series of substrate concentrations) was carried out in duplicate on different days with freshly prepared substrate and enzyme dilutions. Data were analyzed by non-linear regression of the replicated data. […] Kinetic parameters are reported±standard error (SE) as determined from the non-linear regression.
More limited analyses (explained below) were carried out with L-Phe and L-Leu acceptor substrates.

Substrate in series [1]: N[C@@H](Cc1ccc(O)cc1)C(=O)O
Nature of the series: purified protein, by the assay type. The note with it: other: variable acceptor substrate, pH 8.0, 25°C.

Substrate in series [2]: N[C@@H](Cc1ccc(O)c(O)c1)C(=O)O
Nature of the series: purified protein, by the assay type. The note with it: other: variable acceptor substrate, pH 8.0, 25°C.

The mark [3] stands for this setting: constant substrate CA-CoA (50μM).
The mark [4] stands for this setting: constant substrate FA-CoA (20μM).
Where [5] appears, read: constant substrate p-CA-CoA (20μM).

A value given as a limit tells only on which side of the number the result lay.

For `O=C(O)CC(O)C(=O)O` (stereo not shown) [malic acid], in the series with red clover HDT (HDT1), the “Use as acceptor substrate (product formation with hydroxycinnamoyl-CoA donors)” value (from here on “Use as acceptor substrate”) is recorded as “No reaction products were seen”.

With `N=C(N)NCCC[C@H](N)C(=O)O` [arginine], the “Use as acceptor substrate” value in the series with red clover HDT (HDT1) is listed as “no product was detected”.

For the molecule `N[C@@H](Cc1ccccc1)C(=O)O` [L-Phe, L-phenylalanine], the Michaelis-Menten constant (Km) on red clover HDT1 (setting [3]) was above 10000 µM. The “Use as acceptor substrate” value in the series on red clover HDT (HDT1) is “capable of transferring”.

With `N[C@@H](Cc1ccc(O)cc1)C(=O)O` [L-Tyr, L-tyrosine], the “catalytic efficiency, fold higher compared to L-DOPA as acceptor” value on red clover HDT1 (acceptor substrate comparison) is reported as “about 10 fold”. For the same molecule, in the series on red clover HDT (HDT1), the “Use as acceptor substrate” value is given as “capable of transferring”.

For the molecule `N[C@@H](Cc1ccc(O)c(O)c1)C(=O)O` [L-DOPA, L-3,4-dihydroxyphenlylalanine], the kcat was determined as 0.75 ± 0.015 s⁻¹ at red clover HDT1 (setting [4]) and 2.00 ± 0.022 s⁻¹ at red clover HDT1 (setting [5]). Also, the “Use as acceptor substrate” value in the series with red clover HDT (HDT1) is “capable of transferring”.

On to `N[C@@H](Cc1c[nH]c2ccccc12)C(=O)O` [L-Trp, L-tryptophan], for which the kcat on red clover HDT1 (setting [3]) is 1.21 ± 0.007 s⁻¹; at red clover HDT1 (setting [4]) it was 0.35 ± 0.007 s⁻¹; on red clover HDT1 (setting [5]) it was 1.00 ± 0.009 s⁻¹. Besides, the Michaelis-Menten constant (Km) was 1250 ± 26.7 µM on red clover HDT1 (setting [3]), 273 ± 24.1 µM at red clover HDT1 (setting [4]) and 2160 ± 63.4 µM on red clover HDT1 (setting [5]). In addition, the “Use as acceptor substrate” value in the series on red clover HDT (HDT1) is “can also serve as acceptors”.

On to `CC(C)C[C@H](N)C(=O)O` [L-Leu, L-leucine], for which the Km at red clover HDT1 (setting [3]) was above 10000 µM. Moreover, in the series with red clover HDT (HDT1), the “Use as acceptor substrate” value is “can also serve as acceptors”.

On to `NCCc1ccc(O)cc1` [tyramine], for which the “Use as acceptor substrate” value in the series on red clover HDT (HDT1) is “no reaction products were seen”.

B1: red clover HDT1 (Trifolium pratense) (protein)
chain: MVTIIASHTVIPEEPTPQGPFWLSDMDQVVRIRDVPTLYIYKTPKKNQENKNIVETFKNSLSKILVHYYPIAGRLCYIEGGRLELNLNAKGAILVEAETEKTMNDYGDFSHFDTIKELVPMIDYNQPIEEIPNFVVQLTNFKNNEGFAIGVAFLHPLSDGLGAIKFINSWAKIARGETLEANELPFLDRKLLKFSHTPLEPRFEHLELKPLPLILGRKDASEEKEKKTSATLLKLSSEQVDKLKKKANEEDVLGIQKKEYSRPYSKFEVISAHIWRCASKARELEDNQESVIRFIADVKNRMIPPLPKNYFGNALTQTATKGYIGEITSKPLGYVAQKIREATELINDEYIRSQIDVVRSFEHLDDARKMFIGEKARYFGNPNFNLTSWLSMPVYEADFGWGKPNYFGLADVSPHDRAVILLSPDDDGSVLVSFHFQIAHMELFNKYFYEEI
Take B1: the Km was found to be 342.0 ± 14.37 µM in series [1] (setting [3]); 14.4 ± 0.64 µM in series [1] (setting [4]); 145.3 ± 5.56 µM in series [1] (setting [5]); 2465.0 ± 65.88 µM in series [2] (setting [3]); 150.0 ± 7.65 µM in series [2] (setting [4]); 989.8 ± 35.92 µM in series [2] (setting [5]). Further, the kcat turned out to be 9.12 ± 0.114 s⁻¹ in series [1] (setting [3]), 0.69 ± 0.006 s⁻¹ in series [1] (setting [4]) and 2.74 ± 0.027 s⁻¹ in series [1] (setting [5]). Also, the specificity constant (kcat/Km) stood at 26700 ± 1170 M⁻¹ s⁻¹ in series [1] (setting [3]), 47900 ± 2160 M⁻¹ s⁻¹ in series [1] (setting [4]) and 18900 ± 750 M⁻¹ s⁻¹ in series [1] (setting [5]).

The term Km denotes the substrate concentration at which the rate is half of its maximum. One may read the kcat as the number of substrate molecules converted per active site and unit of time at saturation. What is called kcat/Km is the second-order rate constant that governs catalysis at low substrate concentration.
